Broadly, the IC50 is the point on the concentration scale where inhibition reaches its midpoint.

The values below come from patent US20220332699A1 (SAGE THERAPEUTICS, INC., priority 2019, published 2022).

Sequence of CYP46A1 (Q9Y6A2 whole entry): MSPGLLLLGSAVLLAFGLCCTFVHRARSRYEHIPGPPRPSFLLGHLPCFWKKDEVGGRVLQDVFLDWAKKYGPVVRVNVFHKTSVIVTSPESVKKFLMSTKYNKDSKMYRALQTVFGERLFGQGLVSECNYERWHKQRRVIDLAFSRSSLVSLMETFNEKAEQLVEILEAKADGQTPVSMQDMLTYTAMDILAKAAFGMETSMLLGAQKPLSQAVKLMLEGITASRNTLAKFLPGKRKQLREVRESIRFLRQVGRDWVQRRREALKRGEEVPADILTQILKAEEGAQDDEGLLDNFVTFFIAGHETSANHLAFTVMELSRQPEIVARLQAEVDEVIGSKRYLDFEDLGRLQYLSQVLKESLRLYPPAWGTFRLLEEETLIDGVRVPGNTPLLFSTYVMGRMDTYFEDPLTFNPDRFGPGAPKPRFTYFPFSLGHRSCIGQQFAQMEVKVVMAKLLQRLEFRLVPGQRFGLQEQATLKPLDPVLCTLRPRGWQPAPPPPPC

The assay addresses CYP46A1 (Homo sapiens, UniProt Q9Y6A2). As to the kind of experiment: CYP46A1 Enzyme Assay 2 (testosterone substrate, HPLC-MS). Format: biochemical. The note with it: read-out: IC50 (CYP46A1 inhibitory activity). On the procedure:
Briefly, in a 384-well plate format, 10 μL per well of an enzyme-substrate mixture of CYP46A1 (5 μM final concentration) and Testosterone ([…] final concentration) were dispensed to wells containing test compound. For CYP46A1 titration, 5 μL per well of serially diluted CYP46A1 (concentrations including 10 μM, 5 μM, and 2.5 μM) and Testosterone (concentration of […]) were dispensed. For Testosterone titration, 5 μL per well of serially diluted Testosterone (concentrations including 10 μM, 5 μM, and 2.5 μM) and CYP46A1 (concentration of 5 μM) were dispensed. The plates were centrifuged at 1000 rpm for 30 seconds, and then sealed and incubated at 37° C. for 30 minutes. The plate was removed from the incubator, and then 10 μL per well of NADPH-generating system were dispensed to initiate the reaction. The plates were incubated at 37° C. for 15 minutes, added with 80 μL per well of 100% methanol consisting 1 ng/ml diclofenac as internal standard, and then transferred for HPLC-MS.
As for `CC(C)(O)c1ccc(CC2(C#N)CCN(C(=O)c3cccnc3-c3ccncn3)CC2)cc1` [Compound A223, 4-(4-(2-hydroxypropan-2-yl)benzyl)-1-(2-(pyrimidin-4-yl)nicotinoyl)piperidine-4-carbonitrile], the half-inhibitory concentration (IC50) is 100 to 1000 nM. For the compound `N#CC1(Cc2ccc3ccccc3c2)CCN(C(=O)c2cccnc2-c2ccncn2)CC1` [Compound A224, 4-(naphthalen-2-ylmethyl)-1-(2-(pyrimidin-4-yl)nicotinoyl)piperidine-4-carbonitrile], the IC50 was below 100 nM.

Turning to `N#CC1(Cc2cccc3ccccc23)CCN(C(=O)c2cccnc2-c2ccncn2)CC1` [Compound A225, 4-(naphthalen-1-ylmethyl)-1-(2-(pyrimidin-4-yl)nicotinoyl)piperidine-4-carbonitrile], the IC50 is below 100 nM. With `N#CC1(Cc2ccc(C3CC3)cn2)CCN(C(=O)c2cccnc2-c2ccncn2)CC1` [Compound A226, 4-((5-cyclopropylpyridin-2-yl)methyl)-1-(2-(pyrimidin-4-yl)nicotinoyl)piperidine-4-carbonitrile], the IC50 lay within 100 to 1000 nM. Take `N#CC1(Cc2ccc(F)cc2)CCN(C(=O)c2cc(C(F)(F)F)ccc2-c2ccncn2)CC1` [Compound A227, 4-(4-fluorobenzyl)-1-(2-(pyrimidin-4-yl)-5-(trifluoromethyl)benzoyl)piperidine-4-carbonitrile]: the concentration for half-maximal inhibition (IC50) is below 100 nM.

Regarding `N#CC1(Cc2ccc(C(F)(F)F)cn2)CCN(C(=O)c2cccnc2-c2ccncn2)CC1` [Compound A228, 1-(2-(pyrimidin-4-yl)nicotinoyl)-4-((5-(trifluoromethyl)pyridin-2-yl)methyl)piperidine-4-carbonitrile], the half-inhibitory concentration (IC50) was in the range of 100 to 1000 nM.

On to `N#CC1(Cc2ccc(F)cc2)CCN(C(=O)c2ccccc2-c2ccncn2)CC1` [Compound A229, 4-(4-fluorobenzyl)-1-(2-(pyrimidin-4-yl)benzoyl)piperidine-4-carbonitrile], for which the IC50 is below 100 nM.

As to `N#CC1(Cc2ccc(F)cc2C2CC2)CCN(C(=O)c2cccnc2-c2ccncn2)CC1` [Compound A230, 4-(2-cyclopropyl-4-fluorobenzyl)-1-(2-(pyrimidin-4-yl)nicotinoyl)piperidine-4-carbonitrile], the IC50 is below 100 nM. In the case of `N#CC1(Cc2ccc(Cl)cc2C2CC2)CCN(C(=O)c2cccnc2-c2ccncn2)CC1` [Compound A231, 4-(4-chloro-2-cyclopropylbenzyl)-1-(2-(pyrimidin-4-yl)nicotinoyl)piperidine-4-carbonitrile], the IC50 was below 100 nM.

`N#CC1(Cc2ccc(Cl)cc2Br)CCN(C(=O)c2cccnc2-c2ccncn2)CC1` [Compound A232, 4-(2-bromo-4-chlorobenzyl)-1-(2-(pyrimidin-4-yl)nicotinoyl)piperidine-4-carbonitrile]: the IC50 is below 100 nM.

Regarding `N#CC1(Cc2ccc(F)cc2)CCN(C(=O)c2cccnc2-c2ncncc2F)CC1` [Compound A233, 4-(4-fluorobenzyl)-1-(2-(5-fluoropyrimidin-4-yl)nicotinoyl)piperidine-4-carbonitrile], the IC50 is above 1000 nM.

In the case of `N#CC1(Cc2ccc(F)cc2)CCN(C(=O)c2cc(Cl)ccc2-c2ccncn2)CC1` [Compound A234, 1-(5-chloro-2-(pyrimidin-4-yl)benzoyl)-4-(4-fluorobenzyl)piperidine-4-carbonitrile], the IC50 was below 100 nM. As to `N#C[C@]1(Cc2ccc(F)cc2)CCN(C(=O)c2cccnc2-c2ccncn2)C1` [Compound A235, (R)-3-(4-fluorobenzyl)-1-(2-(pyrimidin-4-yl)nicotinoyl)pyrrolidine-3-carbonitrile], the IC50 was above 1000 nM. For the compound `N#C[C@@]1(Cc2ccc(F)cc2)CCN(C(=O)c2cccnc2-c2ccncn2)C1` [Compound A236, (S)-3-(4-fluorobenzyl)-1-(2-(pyrimidin-4-yl)nicotinoyl)pyrrolidine-3-carbonitrile], the IC50 is above 1000 nM. In the case of `C[C@H](c1ccc(F)cc1F)C1(C#N)CCN(C(=O)c2cccnc2-c2ccncc2)CC1` [Compound A237, (S)-1-([2,4′-bipyridine]-3-carbonyl)-4-(1-(2,4-difluorophenyl)ethyl)piperidine-4-carbonitrile] it was below 100 nM; in that of `C[C@@H](c1ccc(F)cc1F)C1(C#N)CCN(C(=O)c2cccnc2-c2ccncc2)CC1` [Compound A238, (R)-1-([2,4′-bipyridine]-3-carbonyl)-4-(1-(2,4-difluorophenyl)ethyl)piperidine-4-carbonitrile], below 100 nM. `N#CC1(Cc2cnc(C(F)(F)F)nc2)CCN(C(=O)c2cccnc2-c2ccncn2)CC1` [Compound A239, 1-(2-(pyrimidin-4-yl)nicotinoyl)-4-((2-(trifluoromethyl)pyrimidin-5-yl)methyl)piperidine-4-carbonitrile]: the IC50 is above 1000 nM. On to `N#CC1(Cc2ccc(C(F)(F)F)cc2F)CCN(C(=O)c2cccnc2-c2ccncn2)CC1` [Compound A240, 4-(2-fluoro-4-(trifluoromethyl)benzyl)-1-(2-(pyrimidin-4-yl)nicotinoyl)piperidine-4-carbonitrile], for which the IC50 is below 100 nM. Regarding `C[C@H](c1ccc(F)cc1F)C1(C#N)CCN(C(=O)c2cccnc2-c2ccncn2)CC1` [Compound A241, (S)-4-(1-(2,4-difluorophenyl)ethyl)-1-(2-(pyrimidin-4-yl)nicotinoyl)piperidine-4-carbonitrile], the half-maximal inhibitory concentration (IC50) was below 100 nM. Regarding `C[C@@H](c1ccc(F)cc1F)C1(C#N)CCN(C(=O)c2cccnc2-c2ccncn2)CC1` [Compound A242, (R)-4-(1-(2,4-difluorophenyl)ethyl)-1-(2-(pyrimidin-4-yl)nicotinoyl)piperidine-4-carbonitrile], the half-maximal inhibitory concentration (IC50) is below 100 nM. Take `C[C@H](c1c(F)cccc1F)C1(C#N)CCN(C(=O)c2cccnc2-c2ccncn2)CC1` [Compound A243, (S)-4-(1-(2,6-difluorophenyl)ethyl)-1-(2-(pyrimidin-4-yl)nicotinoyl)piperidine-4-carbonitrile]: the IC50 was below 100 nM. Regarding `C[C@@H](c1c(F)cccc1F)C1(C#N)CCN(C(=O)c2cccnc2-c2ccncn2)CC1` [Compound A244, (R)-4-(1-(2,6-difluorophenyl)ethyl)-1-(2-(pyrimidin-4-yl)nicotinoyl)piperidine-4-carbonitrile], the IC50 was below 100 nM. Regarding `C[C@H](c1c(F)cccc1F)C1(C#N)CCN(C(=O)c2cccnc2-c2ccncc2)CC1` [Compound A245, (S)-1-([2,4′-bipyridine]-3-carbonyl)-4-(1-(2,6-difluorophenyl)ethyl)piperidine-4-carbonitrile], the IC50 is below 100 nM.

Turning to `C[C@@H](c1c(F)cccc1F)C1(C#N)CCN(C(=O)c2cccnc2-c2ccncc2)CC1` [Compound A246, (R)-1-([2,4′-bipyridine]-3-carbonyl)-4-(1-(2,6-difluorophenyl)ethyl)piperidine-4-carbonitrile], the 50% inhibitory concentration (IC50) was below 100 nM. As to `C[C@@H]1CN(C(=O)c2cccnc2-c2ccncn2)CC[C@@]1(C#N)Cc1ccc(F)cc1` [Compound A247, (3S,4S)-4-(4-fluorobenzyl)-3-methyl-1-(2-(pyrimidin-4-yl)nicotinoyl)piperidine-4-carbonitrile], the IC50 is below 100 nM. To `C[C@H]1CN(C(=O)c2cccnc2-c2ccncn2)CC[C@]1(C#N)Cc1ccc(F)cc1` [Compound A248, (3R,4R)-4-(4-fluorobenzyl)-3-methyl-1-(2-(pyrimidin-4-yl)nicotinoyl)piperidine-4-carbonitrile] belongs below 100 nM.
